Assay results as given in ChEMBL document CHEMBL4229412, “Design, synthesis, in vitro and in vivo evaluation, and structure-activity relationship (SAR) discussion of novel dipeptidyl boronic acid proteasome inhibitors as orally available anti-cancer agents for the treatment of multiple myeloma and mechanism studies” (Bioorg Med Chem, 2018).

Assay: in vivo
Settings: Sprague-Dawley, rat, po, 1.2 mg/kg

bioavailability: 27.8%
SMILES: CC(C)C[C@H](NC(=O)CNC(=O)c1cc(Cl)ccc1Cl)B(O)O [IXAZOMIB]
